The values that follow come from ChEMBL document CHEMBL1201862, “PubChem BioAssay data set” (2004).

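A five-concentration, 48-hour dose response in 96-well plates underlies each endpoint, interpolated linearly between surrounding concentrations. Here, GI50 denotes the concentration required for 50% inhibition of growth.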 Active and inactive are the calls of the source. Rule as the data show it: active = GI50 up to about 1.1 µM and inactive = higher.

What all share (experiment): inhibition of tumour cell growth, NCI panel, 48 h
Test [1] concerns HCC 2998.
The subject of test [2] is HCT-15.
The subject of test [3] is HOP-62.
Test [4] concerns HOP-92.
Test [5] has as its system IGROV-1.
Test [6] concerns LXFL 529.
For test [7], the system named is NCI-H226.
Test [8] concerns NCI-H460.
The test system of test [9] is SF-295.
In test [10] the test system is SF-539.
The test system of test [11] is SK-MEL-28.
The subject of test [12] is SK-MEL-2.
The test system of test [13] is SK-MEL-5.
Test [14] deals with SN12C.
In test [15] the test system is SNB-19.
Test [16] has as its system SNB-75.
The test system of test [17] is SNB-78.
Test [18] deals with U-251.
Test [19] concerns UO-31.
The subject of test [20] is LOX IMVI.

On to `CO/C(=N\N=C\c1ccc(Cl)cc1)c1ccncc1`, for which the GI50 in [1] is > 100 µM (inactive); in test [2] it was more than 100 µM; in test [3] it was > 100 µM (inactive); in test [4], > 100 µM (inactive); in [5], > 100 µM (inactive); in test [6], > 100 µM (inactive). Moreover, the GI50 is 59.7 µM (inactive) in [7]; > 100 µM (inactive) in test [8]; > 100 µM (inactive) in test [9]; > 100 µM (inactive) in [10]; > 100 µM (inactive) in test [11]; > 100 µM (inactive) in [12]. For the same compound, the GI50 in test [13] is > 100 µM (inactive); in [14] it was > 100 µM (inactive); in test [15], > 100 µM (inactive); in [16], 63 µM (inactive); in test [17], > 100 µM (inactive); in test [18], > 100 µM (inactive). The GI50 in [19] was > 100 µM (inactive).

For `N#Cc1ccc([N+](=O)[O-])cc1NC(N)=S`, the GI50 in test [1] was > 100 µM (inactive); in [2] it was more than 100 µM; in test [3], > 100 µM (inactive); in [4], > 100 µM (inactive); in test [5], > 100 µM (inactive); in test [6], 16.3 µM (inactive). Also, the GI50 in [9], in [10], in [11], in test [12], in test [13] and in test [14] was > 100 µM (inactive) in each case. Also, the GI50 in test [15], in test [16], in test [17], in test [18] and in test [19] was > 100 µM (inactive) each time.

Consider `N/C(=N/O)N/N=C\c1cc(Cl)cc(Cl)c1O`, for which the GI50 in [1] was 2.31 µM (inactive); in test [2], 2.02 µM; in test [3], 0.615 µM (active); in [4] it was 7.26 µM (inactive); in [5], 6.97 µM (inactive); in [20] it was 0.918 µM (active). The GI50 was 2.01 µM (inactive) in test [7]; 0.0705 µM (active) in [8]; 0.791 µM (active) in [9]; 1.64 µM (inactive) in [10]; 14.1 µM (inactive) in [11]; 9.62 µM (inactive) in test [12]. Also, the GI50 in [13] is 3.3 µM (inactive); in test [14] it was 1.62 µM (inactive); in test [15], 2.27 µM (inactive); in [16] it was 1.03 µM (active); in [17], 21.1 µM (inactive); in [18], 2.87 µM (inactive). Moreover, the GI50 in [19] was 4.25 µM (inactive).

As to `CCn1cnnc1-c1nsc2ccccc12`, the GI50 was > 100 µM (inactive) in test [1]; more than 100 µM in [2]; > 100 µM (inactive) in [3]; 45.3 µM (inactive) in test [4]; > 100 µM (inactive) in test [5]; > 100 µM (inactive) in test [20]. In addition, the GI50 in test [6] was > 100 µM (inactive); in [8] it was > 100 µM (inactive); in test [10], > 100 µM (inactive); in test [11], > 100 µM (inactive); in test [12], > 100 µM (inactive); in [13], 83.8 µM (inactive). Moreover, the GI50 in test [14] is > 100 µM (inactive); in [15], > 100 µM (inactive); in [16] it was 0.369 µM (active); in test [17] it was > 100 µM (inactive); in [18], > 100 µM (inactive); in test [19], > 100 µM (inactive).

As to `COCOc1ccc(OC)cc1`, the GI50 is > 100 µM (inactive) in test [1]; more than 100 µM in test [2]; > 100 µM (inactive) in test [3]; > 100 µM (inactive) in test [4]; > 100 µM (inactive) in test [5]; > 100 µM (inactive) in [20]. For the same compound, the GI50 in test [7], in test [8], in test [9], in test [10], in test [11] and in test [12] was > 100 µM (inactive) each time. Also, the GI50 in [13], in [14], in [15], in test [16], in [17] and in [18] was > 100 µM (inactive) each time. For the same compound, the GI50 in [19] is > 100 µM (inactive).

Regarding `CC[C@@H]1ON(C)[C@H]2CN(C)C(=O)[C@@H]12`, the GI50 in [1] is > 100 µM (inactive); in test [2], more than 100 µM; in [3], > 100 µM (inactive); in test [4] it was > 100 µM (inactive); in test [5], > 100 µM (inactive); in test [20], > 100 µM (inactive). The GI50 in [7], in test [8], in test [9], in test [11], in test [12] and in [13] was > 100 µM (inactive) throughout. Also, the GI50 in test [14], in [15], in test [18] and in [19] was > 100 µM (inactive) throughout.

For `COc1ccc(C2C(Cl)C(=O)N2NC(=O)c2ccc(NC(C)=O)cc2)cc1OC` (configuration not stated), the GI50 in test [1], in test [3], in test [4], in test [5], in test [6] and in test [7] was > 100 µM (inactive) in each case. For the same compound, the GI50 in test [8], in test [9], in test [10], in test [11], in test [12] and in test [13] was > 100 µM (inactive) throughout. In addition, the GI50 in test [15], in test [16], in test [18] and in test [19] was > 100 µM (inactive) each time.

Regarding `O=c1n(Cc2ccccc2)c2ccccc2n1CC1CS1` (configuration not stated), the GI50 in test [1] is > 100 µM (inactive); in test [2] it was more than 100 µM; in test [3], > 100 µM (inactive); in test [4], > 100 µM (inactive); in [5] it was > 100 µM (inactive); in test [20], > 100 µM (inactive). Besides, the GI50 in test [6], in test [7], in test [9], in test [10], in [11] and in [12] was > 100 µM (inactive) in each case. Moreover, the GI50 in [14] is > 100 µM (inactive); in test [15] it was > 100 µM (inactive); in test [16], 58.6 µM (inactive); in test [19] it was > 100 µM (inactive).

Consider `Nc1c(-c2ccccc2[N+](=O)[O-])nc2ccccn12`, for which the GI50 in [1] is > 100 µM (inactive); in [2] it was more than 100 µM; in test [3] it was > 100 µM (inactive); in test [4], > 100 µM (inactive); in [5], > 100 µM (inactive); in [20] it was > 100 µM (inactive). The GI50 in [6], in test [7], in [8], in test [9], in test [11] and in [12] was > 100 µM (inactive) throughout. For the same compound, the GI50 in test [13], in test [14], in [18] and in test [19] was > 100 µM (inactive) each time.

For `CCOC(=O)c1cc(Cl)ccc1OC(N)=O`, the GI50 in [1] is > 100 µM (inactive); in [2], more than 100 µM; in test [3], > 100 µM (inactive); in test [4] it was > 100 µM (inactive); in test [5], > 100 µM (inactive); in test [20], > 100 µM (inactive). For the same compound, the GI50 in [7], in test [8], in [9], in test [10], in test [11] and in test [12] was > 100 µM (inactive) throughout. In addition, the GI50 in test [13], in test [14], in [15], in test [16], in [17] and in [18] was > 100 µM (inactive) throughout. Besides, the GI50 in [19] was > 100 µM (inactive).

On to `CC1(C)OCC=CCO1`, for which the GI50 is > 100 µM (inactive) in test [1]; > 100 µM (inactive) in test [3]; > 100 µM (inactive) in test [4]; > 100 µM (inactive) in test [5]; 50.9 µM (inactive) in test [20]; > 100 µM (inactive) in test [7]. In addition, the GI50 in test [8] was > 100 µM (inactive); in test [9] it was > 100 µM (inactive); in test [10], 67.8 µM (inactive); in test [11], > 100 µM (inactive); in test [12] it was > 100 µM (inactive); in test [13] it was > 100 µM (inactive). Besides, the GI50 in test [14], in test [15], in test [16], in [18] and in test [19] was > 100 µM (inactive) in each case.
